Reference: patent US12139815B2, “Methods for rapid detection of immunogenic epitopes in biothreat agents and emerging pathogens for peptide vaccines and therapeutics” (priority 2021, dated 2024)

Test system: antibodies from sera of mice immunized with Ft-ΔclpB
Type: binding, mouse

## DNTTIIDGAGEK [SEQ ID NO: 7]
  enrichment in Experiment samples relative to Control samples (in words): enriched

## EGVITVEEGK (listed as Francisella tularensis) [SEQ ID NO: 8]
  enrichment in Experiment samples relative to Control samples (in words): enriched
